Data: PMC2225439, “Amyloid as a Depot for the Formulation of Long-Acting Drugs” (PLoS Biology, 2008)
*1 amine or outer side, *2 acyl side, *3 side chain or, on linkers, in order; H or OH if unused. Where a SMILES comes first, the peptide text is derived from it. Side-chain parts run from the residue outwards. [ ]: non-standard residue; d: D form. The star is where a group is joined. dPhe(4-NHCONH2) = NC(=O)Nc1ccc(C[C@@H](N)C(=O)O)cc1; Dihydroorotyl(S) = O=C1C[C@@H](C(=O)*)NC(=O)N1; dPhe(4-NH2) = Nc1ccc(C[C@@H](N)C(=O)O)cc1; dPhe(4-Cl) = N[C@H](Cc1ccc(Cl)cc1)C(=O)O; Phe(4-NH2) = Nc1ccc(C[C@H](N)C(=O)O)cc1; d2Nal = N[C@H](Cc1ccc2ccccc2c1)C(=O)O; Lys(iPr) = CC(C)NCCCC[C@H](N)C(=O)O; NHCH2CH2OCH2CH2OEt = CCOCCOCCN*; d3Pal = N[C@H](Cc1cccnc1)C(=O)O; Methoxycarbamoyl = CONC(=O)*; Nicotinoyl = O=C(c1cccnc1)*; PEG3 = NCCOCCOCCOCCC(=O)O; CO = O=C([*:1])[*:2]; Butyryl = CCCC(=O)*

How the values were obtained:
[1] = Peptide release from amyloid (dialysis experiment); conditions: 35 d; for stability of fibrils from release profile (in words): dialysis of 30-d-old samples
Experimental: Although amyloid fibrils are very stable, they must follow thermodynamic equilibrium conditions between fibril and monomer. […] A total of 200 μl of 30-d-old GnRH analog (in) was dialyzed 4 ml of 5% D-mannitol (out). A 3.5-kDa cutoff, which is twice the size of the peptides studied, was chosen to ensure that the released particles are most likely monomeric. The peptide release and the remaining aggregates were monitored by fluorescence over 35 d at room temperature.
A 200-μl aliquot of aged GnRH in solution conditions given above was transferred into a 0.6-ml Eppendorf tube with a hole in the cap. To study the effect of heparin on peptide release, a mixture of hormone analog and heparin (1:1 v/v) was incubated overnight in parallel with a half-diluted peptide fibril sample in 5% D-mannitol and 0.01% sodium azide. The hole in the cap of the Eppendorf tube was sealed with a 3.5-kDa molecular weight cutoff (MWCO) membrane. Next, the Eppendorf tube was inserted upside down into a 15-ml Falcon tube containing 4 ml of 5% D-mannitol in water and 0.01% sodium azide. Care was taken to make sure that the membrane was exposed to solutions both in and outside and that any bubbles at the membrane interface were removed. The tubes were then incubated at room temperature. To measure the remaining peptide concentration inside the 0.6-ml Eppendorf tube, a 5-μl aliquot was diluted into 500 μl water with 5% D-mannitol, 0.01% sodium azide, and the fluorescence was measured with excitation at 280 nm and emission in the range of 290–500 nm. The excitation slit width was 2 nm, and emission slit width was 11 nm. To determine the peptide concentration outside the membrane in the 15-ml tube, an aliquot of 250 μl of solution was taken from the releasing medium, diluted into 500 μl final volume by 5% D-mannitol, 0.01% sodium azide, and fluorescence was measured. Following spectra recording, the dialysis system was reassembled as described above. […] The normalized intensity maxima from inside and outside the membrane were plotted as a function of time and fit by an exponential function to extract the half-life of the fibrils and the K off, respectively. […] The extracted half-life, t 1/2, is the time taken, during which the fluorescence signal inside the 0.6-ml Eppendorf tube drops by 50%.

[2] = Electron microscopy of negative-stained samples; format: physicochemical; set-up: key to EM^8 / EM^30: fib, fibrils; nfib, no fibrils; conditions: for EM^8: electron microscopy at day 8 of incubation; for EM^8 / EM^30: 1 mg/ml in 5% D-mannitol, room temperature, at least two independent experiments; for EM^30: electron microscopy at day 30 of incubation
Experimental: To formally determine the formation of amyloid fibrils by GnRH analogs and to characterize other possible assemblies present in the sample, EM was done on all of the GnRH analogs. Since the EM analysis is for a qualitative interpretation only, amyloid fibrils and other small aggregates might be observed under the electron microscope even if only a minority of the sample forms fibrils. Samples were studied after 8 and 30 d of incubation. […] The fibrils show a wide variety of morphologies, comprising helical ultrastructures with varying degrees of lateral association. Furthermore, the fibrils are composed of one or more filaments, resulting in overall diameters ranging from approximately 6 to 12 nm. No oligomers are observed for the long-acting compounds at day 8 or at day 30 (Figures 2 and S2).
(§1) GnRH analogs were dissolved in a glass tube in 1 ml of 5% D-mannitol and 0.01% sodium azide at a concentration of 1 mg/ml. The GnRH analogs were then incubated at room temperature without stirring. The fibril formation was monitored by EM, CR, and time-resolved by Thio T binding studies. Three independent experiments were performed for each sample.
A 5-μl aliquot of peptide sample was diluted into 50 μl of water to a peptide concentration of approximately 50 μM, spotted on a glow-discharged, carbon-coated Formvar grid (Electron Microscopy Sciences), incubated for 5 min, washed with distilled water, and then stained with 1% (w/v) aqueous uranyl formate solution. Uranyl formate solutions were filtered through 0.2-μm sterile syringe filters (Corning) before use. EM analysis was performed using a JEOL JEM-100CXII electron microscope at 80 kV with nominal magnifications between 36,000 and 72,000. Images were recorded digitally by using the SIS Megaview III imaging system. At least two independent experiments were carried out for each sample.

[3] = Thio T binding (amyloid fibril formation); format: physicochemical; set-up: key to Thio T Binding: b, binding; n, not binding; conditions: 1 mg/ml in 5% D-mannitol, 0.01% sodium azide, room temperature without stirring, monitored daily over 21 d; fluorescence ex 450 nm / em 482 nm; three independent experiments
Experimental: The kinetics of fibril formation in vitro is generally a slow process over several days or weeks, and can be monitored by the increase of fluorescence intensity of the cross-β-sheet–sensitive dye, Thio T [15]. Thio T fluorescence is thereby insignificant during the initial incubation period of amyloid aggregation due to the nonexistence of Thio T–sensitive β-sheet aggregates. After the initial phase, a time-dependent increase of fluorescence intensity is observed until a maximum intensity is reached, at which time maximal fibril formation has occurred. […] For the Thio T binding studies, all GnRH analogs were incubated at room temperature at a concentration of 1 mg/ml in 5% D-mannitol, conditions identical to the formulation used in the animal experiments. In addition, 0.01% sodium azide was added. The Thio T fluorescence was monitored daily for all analogs over a period of 21 d (Figure 1).
as §1
A 10-μl aliquot of peptide sample was diluted into 500 μl of water with 5% D-mannitol containing 0.01% (w/v) sodium azide. The solution was mixed with 10 μl of 1 mM Thio T prepared in the same solution. Fluorescence was measured immediately after addition of Thio T. The experiment was measured on a spectrofluorimeter (Photon Technology International) with excitation at 450 nm and emission at 482 nm. The fluorescence intensity at 482 nm was plotted against incubation time (day). A rectangular 10-mm quartz microcuvette was used. Three independent experiments were performed for each sample.

Congo red (CR) binding = format: physicochemical; set-up: key to Congo Red: b, binding; n, not binding; conditions: analogs incubated for 30 d, 1 mg/ml in 5% D-mannitol, 0.01% sodium azide, room temperature; UV 300–700 nm and by eye; three independent experiments
Experimental: To confirm amyloid formation by GnRH analogs, CR binding was measured. CR, like Thio T, is a dye routinely used to detect β-sheet–rich assemblies. CR binding can be measured by the “red shift” change of its absorption maximum from 490 to 540 nm, by an increase of the dye's molar absorptivity, and in favorable cases by eye. All three types of measurements were performed with GnRH analogs incubated for 30 d. […] However, five short-acting GnRH analogs, i.e., S3, S4, S6, S10, and S11, bind CR, showing that some short-acting GnRH-analogs are able to form amyloids after prolonged incubation (see also below). In contrast to short-acting analogs, all long-acting analogs bind CR.
as §1
A 5-μl aliquot of peptide sample was mixed with 80 μl of PBS buffer containing 10% ethanol. Then 15 μl of a 100 μM CR solution (filtered through 0.2-μm filter) in PBS containing 10% ethanol was added. After mixing, UV was measured from 300–700 nm. For the measurement of the CR-only spectrum, 15 μl of CR solution with 85 μl of PBS containing 10% ethanol was prepared. As a control, a 5-μl aliquot of GnRH analog mixed with 95 μl of PBS containing 10% ethanol was measured. Three independent experiments were performed for each sample. In addition to the UV measurements, pictures of the cuvette containing the peptide sample and CR were taken to visually show the CR binding to the amyloids.

| Compound | stability of fibrils from release profile (in words) [1] | EM^8 [2] | EM^30 [2] | Thio T Binding [3] | Congo Red (Congo red (CR) binding) | also measured |
| --- | --- | --- | --- | --- | --- | --- |
| CCCC(=O)N[C@H](Cc1ccc2ccccc2c1)C(=O)N[C@H](Cc1ccc(Cl)cc1)C(=O)N[C@H](Cc1cccnc1)C(=O)N[C@@H](CO)C(=O)N[C@@H](Cc1ccc(NC(=O)NOC)cc1)C(=O)N[C@H](Cc1ccc(NC(=O)NOC)cc1)C(=O)N[C@@H](CC(C)C)C(=O)N[C@@H](CCCCNC(C)C)C(=O)N1CCC[C@H]1C(=O)N[C@H](C)C(N)=O [S4, des-Ac-[Aph(CO-NH-OCH3)^5,D-Aph(CO-NH-OCH3)^6]-CH3-(CH2)2-CO-degarelix] (Butyryl-[d2Nal][dPhe(4-Cl)][d3Pal]S[Phe(4-NH2)](Methoxycarbamoyl)[dPhe(4-NH2)](Methoxycarbamoyl)L[Lys(iPr)]P[dA]-NH2) | form very stable amyloids with very little peptide release |  |  |  |  |  |
| Ac-D3-Pro-DFpa-DTrp-Ser-Tyr-DTrp-Leu-Arg-Pro-Gly-NH2 [S5, reference compound] |  | nfib | nfib | n | n | EM, formation of amyloid-like fibrils at day 30 (in words) ([2]; 30 d of incubation): do not form any detectable amyloid-like fibrils; t1/2 ([1]; half-life of fibrils: time in which fluorescence inside drops by 50%, dialysis of 30-d-old analog, 3.5-kDa MWCO, 5% D-mannitol, room temperature, exponential fit, 2 d = intrinsic diffusion of monomer): 48 h |
| CC(=O)N[C@H](Cc1ccc2ccccc2c1)C(=O)N[C@H](Cc1ccc(Cl)cc1)C(=O)N[C@H](Cc1cccnc1)C(=O)N[C@@H](CO)C(=O)N[C@@H](CCCCNC(=O)c1cccnc1)C(=O)N[C@H](CCCCNC(=O)c1cccnc1)C(=O)N[C@@H](CC(C)C)C(=O)N[C@@H](CCCCNC(C)C)C(=O)N1CCC[C@H]1C(=O)N[C@H](C)C(N)=O [S6, Ac-DNal-DCpa-DPal-Ser-Lys(Nic)-DLys(Nic)-Leu-ILys-Pro-DAla-NH2, reference compound] (Ac-[d2Nal][dPhe(4-Cl)][d3Pal]SK(Nicotinoyl)[dK](Nicotinoyl)L[Lys(iPr)]P[dA]-NH2) | form unstable fibrils |  |  |  |  |  |
| CCOCCOCCNC(=O)N[C@H](Cc1ccc2ccccc2c1)C(=O)N[C@H](Cc1ccc(Cl)cc1)C(=O)N[C@H](Cc1cccnc1)C(=O)N[C@@H](CO)C(=O)N[C@@H](Cc1ccc(NC(=O)[C@@H]2CC(=O)NC(=O)N2)cc1)C(=O)N[C@H](Cc1ccc(NC(=O)NOC)cc1)C(=O)N[C@@H](CC(C)C)C(=O)N[C@@H](CCCCNC(C)C)C(=O)N1CCC[C@H]1C(=O)N[C@H](C)C(N)=O [S3, des-Ac-[D-Aph(CO-NH-OCH3)^6]-C2H5-(C2H4O)2-NH-CO-degarelix] ({NHCH2CH2OCH2CH2OEt-CO}-[d2Nal][dPhe(4-Cl)][d3Pal]S[Phe(4-NH2)](Dihydroorotyl(S))[dPhe(4-NH2)](Methoxycarbamoyl)L[Lys(iPr)]P[dA]-NH2) | form very stable amyloids with very little peptide release |  |  |  |  |  |
| des-Ac-[Aph(CO-NH-OCH3)^5]-CH3-(CH2)2-CO-degarelix [L16] |  | fib | fib | b | b | EM, formation of amyloid-like fibrils at day 8 (in words) ([2]; 8 d of incubation): Short worm-like protofibrils |
| CONC(=O)NCCOCCOCCOCCC(=O)Nc1ccc(C[C@H](NC(=O)[C@H](CO)NC(=O)[C@@H](Cc2cccnc2)NC(=O)[C@@H](Cc2ccc(Cl)cc2)NC(=O)[C@@H](Cc2ccc3ccccc3c2)NC(C)=O)C(=O)N[C@H](Cc2ccc(NC(N)=O)cc2)C(=O)N[C@@H](CC(C)C)C(=O)N[C@@H](CCCCNC(C)C)C(=O)N2CCC[C@H]2C(=O)N[C@H](C)C(N)=O)cc1 [S2, [Aph(CO-(C2H4O)3-C2H4-NH-CO-NH-OCH3)^5]degarelix] (Ac-[d2Nal][dPhe(4-Cl)][d3Pal]S[Phe(4-NH2)]([PEG3-Methoxycarbamoyl])[dPhe(4-NHCONH2)]L[Lys(iPr)]P[dA]-NH2) | form unstable fibrils |  |  |  |  |  |
| CCOCCOCCNC(=O)Nc1ccc(C[C@@H](NC(=O)[C@H](Cc2ccc(NC(=O)[C@@H]3CC(=O)NC(=O)N3)cc2)NC(=O)[C@H](CO)NC(=O)[C@@H](Cc2cccnc2)NC(=O)[C@@H](Cc2ccc(Cl)cc2)NC(=O)[C@@H](Cc2ccc3ccccc3c2)NC(C)=O)C(=O)N[C@@H](CC(C)C)C(=O)N[C@@H](CCCCNC(C)C)C(=O)N2CCC[C@H]2C(=O)N[C@H](C)C(N)=O)cc1 [S11, [DAph(CONH(C2H4O)2-C2H5]degarelix] (Ac-[d2Nal][dPhe(4-Cl)][d3Pal]S[Phe(4-NH2)](Dihydroorotyl(S))[dPhe(4-NH2)]([CO-NHCH2CH2OCH2CH2OEt])L[Lys(iPr)]P[dA]-NH2) | form unstable fibrils |  |  |  |  |  |
| Ac-DNal-DCpa-DPal-Ser-Aph(Atz)-DAph(Atz)-Leu-ILys-Pro-DAla-NH2 [L19, reference compound] |  | fib | fib | b | b |  |
